Laboratory results from US12559696B2, “Amine containing aqueous fluids and method of producing same” (Illinois Tool Works Inc., priority 2023, dated 2026).

How the values were obtained:
[1] = test system: microbial growth; experiment: Biological testing according to ASTM E2275; format: cell-based; settings: 3-amino-4-octanol in solution at 6 total weight percent at higher
Text: The solutions of Examples 1 and 3 and Comparative Examples A and B are subjected to biological testing according to ASTM E2275.

[2] = standard temperature and pressure (STP); cited from earlier work

In the case of `CCCCC(O)C(N)CC` (centres unmarked) [3-amino-4-octanol], the “resistance to microbial growth” value [1] is given as “enhanced resistant to microbial growth” and the “solubility of 3-amino-4-octanol in water” value [2] is given as “about 4.5 percent by weight”.
